Experiments:
[1] = IV pharmacokinetics in dog; format: in vivo, Beagle Dogs
Protocol: (§1) PK was investigated in male CD1 mice, Wistar Han Rats, Cynomolgus monkeys, and Beagle Dogs. Two groups of animals (N=3 per group) received test compound either as an intravenous (IV) dose (1 mg/kg) or by oral gavage (5 mg/kg solution and suspension). Drug was formulated in 90% PEG 400, 10% ethanol for IV administration and in 90% PEG400, 5% ethanol for PO administration. Blood samples were collected at 0.167, 0.25, 0.5, 0.75, 1, 2, 3, 5, 7, 24, 48, 72 and 96 h post dose for IV; 0.25, 0.5, 0.75, 1, 2, 3, 5, 7, 24, 48, 72 and 96 h post dose for oral. Blood samples were collected into K3EDTA tubes and centrifuged at 1500 to 2000×g to obtain plasma. Plasma samples were stored at −20° C. until analysis by LC-MS/MS. All in vivo samples were injected on an Exion LC 4500 Triple Quad™ LC-MS/MS system where the column was maintained at 60° C. and the flow rate was 0.6 mL/min. All LC-MS/MS analysis parameters are captured electronically in the raw data files. Rat IV, Dog IV, Monkey IV, and Monkey PO PK samples were analyzed by General Analysis Method A. Mouse IV, Mouse PO, and Dog PO PK samples were analyzed by General Analysis Method B. Rat PO samples were analyzed by General Analysis Method C.
(§2) The PK parameters were obtained by non-compartmental analysis of plasma concentration vs time data (Phoenix WinNonlin v8.1). The peak concentration (Cmax) and time for Cmax (Tmax) were recorded directly from experimental observations. The area under the curve from time zero to the last sampling time [AUC0-T] and the area under the curve from time zero to infinity [AUCINF] were calculated using the linear-log trapezoidal rule. The total plasma clearance (CLTp), steady-state volume of distribution (VSS), apparent elimination half-life (T-HALF), and mean residence time (MRT) were estimated after IV administration. Estimations of AUC and T-HALF were made using a minimum of three timepoints with quantifiable concentrations. The absolute oral bioavailability (F) was estimated as the ratio of dose-normalized AUC values following oral and IV doses.

[2] = Metabolism in liver microsomes (dog); format: in vitro ADME
Protocol: (§3) Liver microsomes from human, rat dog and monkey were thawed and diluted to a final concentration of 1 mg/mL in 100 mM potassium phosphate buffer (pH 7.4). Test compounds and controls were prepared at 100× final concentration of 1 μM in 1:1 acetonitrile:water (v/v) and aliquoted into microsomal mixture. The mixture was preincubated at 37° C. in a shaking water bath for 10 minutes. The incubations were performed in duplicate. Three controls were included in the incubations; warfarin, phenacetin, and verapamil. After the preincubation, the reaction was initiated with NADPH at a final concentration of 1 mM. At 0, 5, 15, 30, 45 and 60 minutes, 25 μL of sample was removed and quenched with 300 μL of acetonitrile containing internal standard (Telmisartan). The samples were vortexed for 5 minutes at 1200 rpm and then centrifuged at 4000 rpm for 10 min. A 100 μL aliquot of supernatant was diluted three-fold with water and injected on an Exion LC 4500 Triple Quad LC-MS/MS system. Results were reported as a percentage of parent remaining and was calculated from peak area ratios of test compound remaining after at each time point and compared to time zero incubation.

[3] = Metabolism in liver microsomes (human); format: in vitro ADME; details: pH 7.4, 1 μM compound, 1 mg/mL microsomes, NADPH, read-out: Human liver microsome T1/2
Protocol: as §3

[4] = IV pharmacokinetics in mouse; format: in vivo, male CD1 mice; details: male, CD1, plasma, IV 1 mg/kg
Protocol: as §1, §2

[5] = Beagle, plasma, Dog, IV 1 mg/kg

SMILES: Cn1nc(NS(C)(=O)=O)c2c(Cl)ccc(-n3c([C@H](Cc4cc(F)cc(F)c4)NC(=O)Cn4nc(C(F)F)c5c4C(F)(F)[C@@H]4C[C@H]54)nc4nc(OCCC(F)(F)F)ccc4c3=O)c21 (atropisomer, axis not shown; (P)) [Example 1, N—((S)-1-((3P)-3-(4-chloro-1-methyl-3-(methylsulfonamido)-1H-indazol-7-yl)-4-oxo-7-(3,3,3-trifluoropropoxy)-3,4-dihydropyrido[2,3-d]pyrimidin-2-yl)-2-(3,5-difluorophenyl)ethyl)-2-((3bS,4aR)-3-(difluoromethyl)-5,5-difluoro-3b,4,4a,5-tetrahydro-1H-cyclopropa[3,4]cyclopenta[1,2-c]pyrazol-1-yl)acetamide]
- clearance [1, 5]: 1.68 mL/min/kg
- half-life [1, 5]: 8.6 h
- Vd ([1]; Beagle, plasma, Dog, IV 1 mg/kg, read-out: Vss): 0.83 L/kg
- clearance improved relative to Example 60.2 ([1]; dog, IV): 4.9 fold
- half-life in circulation higher than Example 60.2 ([1]; dog, IV): 3.4 fold
- stability in dog liver microsomes relative to Example 60.2 ([2]; Example 1 versus Example 60.2): six times more stable
- half-life at 1 μM ([2]; dog, liver microsomes, pH 7.4, 1 μM compound, 1 mg/mL microsomes, NADPH, read-out: Dog liver microsome T1/2): 1.75 h
- half-life at 1 μM [3]: > 2 h
- clearance [4]: 0.5 mL/min/kg
- half-life [4]: 7.6 h
- Vd ([4]; read-out: Vss): 0.24 L/kg

Source: US12129255B2, “Pyrido [2,3-d]pyrimidine derivatives as inhibitors of human immunodeficiency virus replication” (VIIV HEALTHCARE UK (No. 5) LIMITED, priority 2019, dated 2024)
